Reference: ChEMBL document CHEMBL1909046, “DrugMatrix in vitro pharmacology data”

Tests used:
[1] = DRUGMATRIX: Sodium/nucleoside co-transporter radioligand binding (ligand: nitrobenzylthioinosine); format: cell membranes, Cavia porcellus, Dunkin-Hartley, Cerebral cortex, Membrane; details: Not Active = under 50% inhibition at 10 µM
[2] = biological target: 5-hydroxytryptamine receptor 2B (Homo sapiens, UniProt P41595); format: cell membranes, CHO-K1, Membrane; details: cho-k1; also: in other assays of this panel Not Active means under 50% inhibition at 10 µM
Sequence of 5-hydroxytryptamine receptor 2B (P41595 whole entry): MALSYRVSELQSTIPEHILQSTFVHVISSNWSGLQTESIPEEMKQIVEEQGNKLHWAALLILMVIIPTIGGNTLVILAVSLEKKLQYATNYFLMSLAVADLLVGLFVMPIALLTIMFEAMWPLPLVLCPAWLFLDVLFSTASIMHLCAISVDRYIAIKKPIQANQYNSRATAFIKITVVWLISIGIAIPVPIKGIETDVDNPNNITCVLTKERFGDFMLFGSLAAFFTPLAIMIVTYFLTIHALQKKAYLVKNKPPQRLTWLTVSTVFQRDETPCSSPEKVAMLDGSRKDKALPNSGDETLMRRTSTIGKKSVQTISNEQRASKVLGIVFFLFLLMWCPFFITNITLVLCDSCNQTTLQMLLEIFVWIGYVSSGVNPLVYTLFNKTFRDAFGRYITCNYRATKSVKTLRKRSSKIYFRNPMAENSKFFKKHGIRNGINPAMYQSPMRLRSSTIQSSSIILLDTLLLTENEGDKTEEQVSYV

[3] = DRUGMATRIX: Serotonin (5-Hydroxytryptamine) 5-HT3 radioligand binding (ligand: [3H] GR-65630); format: cell membranes, Membrane; details: hek293; Not Active = under 50% inhibition at 10 µM
[4] = biological target: 5-hydroxytryptamine receptor 6 (Homo sapiens, UniProt P50406); format: cell membranes, HeLa, Membrane; details: hela; also: in other assays of this panel Not Active means under 50% inhibition at 10 µM
Sequence of 5-hydroxytryptamine receptor 6 (P50406 whole entry): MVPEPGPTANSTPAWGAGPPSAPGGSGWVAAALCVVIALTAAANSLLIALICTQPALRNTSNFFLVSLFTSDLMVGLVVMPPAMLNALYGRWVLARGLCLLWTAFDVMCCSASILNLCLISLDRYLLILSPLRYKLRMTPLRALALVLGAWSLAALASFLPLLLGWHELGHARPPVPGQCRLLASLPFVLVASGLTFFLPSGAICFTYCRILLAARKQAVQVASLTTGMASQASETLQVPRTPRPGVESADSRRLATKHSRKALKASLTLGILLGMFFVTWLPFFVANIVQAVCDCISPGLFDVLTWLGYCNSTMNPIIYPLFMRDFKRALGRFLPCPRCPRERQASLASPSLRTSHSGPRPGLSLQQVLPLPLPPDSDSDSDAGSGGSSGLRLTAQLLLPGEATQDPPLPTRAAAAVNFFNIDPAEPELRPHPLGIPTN

Endothelin-1 receptor = biological target: T1, Endothelin-1 receptor (Homo sapiens, UniProt P25101); format: cell membranes, Membrane; details: cho-k1; also: in other assays of this panel Not Active means under 50% inhibition at 10 µM
T1 sequence (P25101 whole entry): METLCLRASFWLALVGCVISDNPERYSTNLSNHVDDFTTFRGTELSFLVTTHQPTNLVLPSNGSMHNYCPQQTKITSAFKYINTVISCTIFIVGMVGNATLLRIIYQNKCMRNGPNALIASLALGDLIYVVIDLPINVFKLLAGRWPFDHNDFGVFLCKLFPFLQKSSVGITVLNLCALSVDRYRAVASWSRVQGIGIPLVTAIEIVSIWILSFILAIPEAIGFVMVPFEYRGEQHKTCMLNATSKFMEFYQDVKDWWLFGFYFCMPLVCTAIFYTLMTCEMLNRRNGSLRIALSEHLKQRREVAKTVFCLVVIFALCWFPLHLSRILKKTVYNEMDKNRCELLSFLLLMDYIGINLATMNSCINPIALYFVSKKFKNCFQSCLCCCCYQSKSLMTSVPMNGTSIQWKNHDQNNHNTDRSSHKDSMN

[5] = DRUGMATRIX: Glutamate, AMPA radioligand binding (ligand: [3H] AMPA); format: cell membranes, Rattus norvegicus, Wistar, Cerebral cortex, Membrane; details: Not Active = under 50% inhibition at 10 µM
[6] = biological target: T2, Polyunsaturated fatty acid lipoxygenase ALOX15 (Oryctolagus cuniculus, UniProt P12530); test: biochemical; format: tissue-based, Reticulocytes; details: reticulocytes;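 also: inhibition of 15-lipoxygenase enzyme activity measured with linoleic acid as the substrate; in other assays of this panel Not Active means under 50% inhibition at 10 µM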
T2 sequence (P12530 whole entry): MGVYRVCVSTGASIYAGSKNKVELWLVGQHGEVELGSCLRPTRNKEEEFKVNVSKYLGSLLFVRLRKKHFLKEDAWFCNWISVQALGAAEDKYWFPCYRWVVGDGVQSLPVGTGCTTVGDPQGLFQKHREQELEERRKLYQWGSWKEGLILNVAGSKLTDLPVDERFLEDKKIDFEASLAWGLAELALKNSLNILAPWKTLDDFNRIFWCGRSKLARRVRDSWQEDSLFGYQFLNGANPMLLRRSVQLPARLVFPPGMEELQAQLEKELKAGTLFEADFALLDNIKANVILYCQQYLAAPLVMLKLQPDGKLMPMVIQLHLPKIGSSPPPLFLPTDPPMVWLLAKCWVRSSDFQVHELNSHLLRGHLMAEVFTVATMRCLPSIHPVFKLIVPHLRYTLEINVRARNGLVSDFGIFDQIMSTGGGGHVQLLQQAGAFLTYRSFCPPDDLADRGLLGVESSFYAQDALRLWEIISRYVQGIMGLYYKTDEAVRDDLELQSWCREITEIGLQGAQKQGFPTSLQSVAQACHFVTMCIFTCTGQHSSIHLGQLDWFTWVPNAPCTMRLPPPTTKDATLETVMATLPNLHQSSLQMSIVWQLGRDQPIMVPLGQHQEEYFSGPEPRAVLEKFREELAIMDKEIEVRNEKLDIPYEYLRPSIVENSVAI

[7] = biological target: T3, Muscarinic acetylcholine receptor M4 (Homo sapiens, UniProt P08173); format: cell membranes, CHO-K1, Membrane; details: cho-k1; also: in other assays of this panel Not Active means under 50% inhibition at 10 µM
T3 sequence (P08173 whole entry): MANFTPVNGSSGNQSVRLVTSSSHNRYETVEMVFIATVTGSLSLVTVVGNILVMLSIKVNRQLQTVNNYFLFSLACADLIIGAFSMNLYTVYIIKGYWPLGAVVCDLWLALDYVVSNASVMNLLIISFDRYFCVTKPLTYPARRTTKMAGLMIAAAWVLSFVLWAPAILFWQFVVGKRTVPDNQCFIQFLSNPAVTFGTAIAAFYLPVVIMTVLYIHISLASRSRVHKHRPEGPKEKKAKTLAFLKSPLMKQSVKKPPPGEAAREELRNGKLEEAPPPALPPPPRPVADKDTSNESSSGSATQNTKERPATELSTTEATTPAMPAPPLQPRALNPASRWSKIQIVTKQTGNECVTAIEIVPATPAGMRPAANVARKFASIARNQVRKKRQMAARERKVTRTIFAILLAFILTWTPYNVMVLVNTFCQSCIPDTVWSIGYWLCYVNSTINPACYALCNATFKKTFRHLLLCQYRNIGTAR

Nitric oxide synthase 1 = Nitric oxide synthase 1 (Rattus norvegicus, UniProt P29476); format: tissue-based, Cerebellum; also: in other assays of this panel Not Active means under 50% inhibition at 10 µM
Sequence of Nitric oxide synthase 1 (P29476 whole entry): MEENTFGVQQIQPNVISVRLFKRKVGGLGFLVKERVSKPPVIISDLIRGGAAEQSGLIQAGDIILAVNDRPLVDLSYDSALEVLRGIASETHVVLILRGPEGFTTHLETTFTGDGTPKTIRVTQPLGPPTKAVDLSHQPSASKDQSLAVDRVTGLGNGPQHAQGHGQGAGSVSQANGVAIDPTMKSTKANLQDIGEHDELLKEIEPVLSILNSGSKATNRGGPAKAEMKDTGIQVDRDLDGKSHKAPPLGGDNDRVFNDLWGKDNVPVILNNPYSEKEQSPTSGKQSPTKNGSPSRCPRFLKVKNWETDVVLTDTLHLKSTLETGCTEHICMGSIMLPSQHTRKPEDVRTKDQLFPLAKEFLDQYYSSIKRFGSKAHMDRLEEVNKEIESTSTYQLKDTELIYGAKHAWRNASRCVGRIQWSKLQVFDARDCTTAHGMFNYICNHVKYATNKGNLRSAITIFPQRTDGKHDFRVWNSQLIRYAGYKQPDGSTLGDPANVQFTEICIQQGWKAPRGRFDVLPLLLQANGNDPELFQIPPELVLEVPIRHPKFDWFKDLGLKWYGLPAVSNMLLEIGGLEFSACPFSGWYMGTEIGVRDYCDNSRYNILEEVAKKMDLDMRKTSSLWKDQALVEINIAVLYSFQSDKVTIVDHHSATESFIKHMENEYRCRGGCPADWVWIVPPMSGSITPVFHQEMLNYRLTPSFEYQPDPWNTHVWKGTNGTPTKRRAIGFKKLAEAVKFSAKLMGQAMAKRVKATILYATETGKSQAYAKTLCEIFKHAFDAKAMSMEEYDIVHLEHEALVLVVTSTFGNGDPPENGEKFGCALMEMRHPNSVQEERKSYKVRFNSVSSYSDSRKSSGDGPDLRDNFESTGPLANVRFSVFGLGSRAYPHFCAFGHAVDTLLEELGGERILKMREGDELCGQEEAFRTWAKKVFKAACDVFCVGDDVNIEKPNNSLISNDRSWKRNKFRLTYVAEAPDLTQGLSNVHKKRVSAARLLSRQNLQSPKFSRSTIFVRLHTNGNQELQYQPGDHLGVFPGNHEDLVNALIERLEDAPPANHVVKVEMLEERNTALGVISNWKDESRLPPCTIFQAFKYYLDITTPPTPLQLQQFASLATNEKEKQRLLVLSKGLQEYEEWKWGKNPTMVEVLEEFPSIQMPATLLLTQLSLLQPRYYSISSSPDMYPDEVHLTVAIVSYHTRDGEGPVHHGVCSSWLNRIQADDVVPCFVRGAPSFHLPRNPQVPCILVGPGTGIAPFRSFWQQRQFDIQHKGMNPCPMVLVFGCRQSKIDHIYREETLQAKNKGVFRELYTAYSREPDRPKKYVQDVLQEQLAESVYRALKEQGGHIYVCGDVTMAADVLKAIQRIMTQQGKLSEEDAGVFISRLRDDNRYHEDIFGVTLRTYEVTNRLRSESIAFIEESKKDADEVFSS

[8] = DRUGMATRIX: Phosphodiesterase PDE4 enzyme inhibition (substrate: [3H]cAMP + cAMP); details: u-937; Not Active = under 50% inhibition at 10 µM
[9] = biological target: Mitogen-activated protein kinase 14 (Homo sapiens, UniProt Q16539); design: species or system Escherichia coli
Sequence of Mitogen-activated protein kinase 14 (Q16539 whole entry): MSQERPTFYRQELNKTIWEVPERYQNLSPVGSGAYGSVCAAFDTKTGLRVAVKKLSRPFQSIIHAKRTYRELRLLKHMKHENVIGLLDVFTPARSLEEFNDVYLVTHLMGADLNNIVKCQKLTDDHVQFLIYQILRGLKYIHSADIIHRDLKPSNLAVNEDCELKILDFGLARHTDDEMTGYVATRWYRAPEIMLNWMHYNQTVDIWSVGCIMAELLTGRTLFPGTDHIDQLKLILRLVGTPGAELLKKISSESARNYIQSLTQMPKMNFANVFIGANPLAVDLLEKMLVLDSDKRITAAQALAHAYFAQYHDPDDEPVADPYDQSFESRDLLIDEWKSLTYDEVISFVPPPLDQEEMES

[10] = biological target: Tyrosine-protein kinase Fyn (Homo sapiens, UniProt P06241); test: biochemical; format: cell-based, Insect cells; details: insect cells
Sequence of Tyrosine-protein kinase Fyn (P06241 whole entry): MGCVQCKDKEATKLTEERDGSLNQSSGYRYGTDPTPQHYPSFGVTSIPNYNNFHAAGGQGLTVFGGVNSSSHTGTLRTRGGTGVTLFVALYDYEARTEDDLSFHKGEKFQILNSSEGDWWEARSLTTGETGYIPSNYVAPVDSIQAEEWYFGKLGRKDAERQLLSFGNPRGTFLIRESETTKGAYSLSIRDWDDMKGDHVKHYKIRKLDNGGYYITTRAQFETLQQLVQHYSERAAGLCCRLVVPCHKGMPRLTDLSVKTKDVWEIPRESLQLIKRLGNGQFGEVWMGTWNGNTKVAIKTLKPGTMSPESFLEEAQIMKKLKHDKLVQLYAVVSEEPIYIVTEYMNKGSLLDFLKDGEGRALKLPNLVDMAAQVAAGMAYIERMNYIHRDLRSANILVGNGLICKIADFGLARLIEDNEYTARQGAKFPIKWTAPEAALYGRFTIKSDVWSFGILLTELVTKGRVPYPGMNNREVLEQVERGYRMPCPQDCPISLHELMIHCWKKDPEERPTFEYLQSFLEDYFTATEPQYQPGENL

[11] = DRUGMATRIX: Purinergic P2X radioligand binding (ligand: [3H] alpha, beta-Methylene-ATP); format: cell membranes, Oryctolagus cuniculus, New Zealand albino, Urinary bladder, Membrane; details: Not Active = under 50% inhibition at 10 µM
Cytochrome P450 2A6 = biological target: T4, Cytochrome P450 2A6 (Homo sapiens, UniProt P11509); details: bti-tn-5b1-4; also: in other assays of this panel Not Active means under 50% inhibition at 10 µM
T4 sequence (P11509 whole entry): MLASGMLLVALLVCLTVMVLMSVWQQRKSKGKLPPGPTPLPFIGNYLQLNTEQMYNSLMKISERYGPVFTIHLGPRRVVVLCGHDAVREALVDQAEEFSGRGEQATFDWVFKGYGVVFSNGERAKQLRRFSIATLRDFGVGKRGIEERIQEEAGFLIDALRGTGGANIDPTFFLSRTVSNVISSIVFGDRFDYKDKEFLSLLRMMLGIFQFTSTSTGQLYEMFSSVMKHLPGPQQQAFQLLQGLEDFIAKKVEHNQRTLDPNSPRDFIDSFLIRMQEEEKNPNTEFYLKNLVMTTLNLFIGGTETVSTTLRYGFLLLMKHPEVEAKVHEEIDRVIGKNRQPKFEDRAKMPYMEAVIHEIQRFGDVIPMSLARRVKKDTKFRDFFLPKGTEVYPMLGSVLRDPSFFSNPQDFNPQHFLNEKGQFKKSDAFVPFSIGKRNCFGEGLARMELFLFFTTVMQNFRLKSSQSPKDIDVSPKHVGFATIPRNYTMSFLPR

CC1=Nc2ccc(Cl)cc2S(=O)(=O)N1 [DIAZOXIDE]
Not Active: IC50 [1] | Ki [1] | IC50 [2] | IC50 [3] | Ki [3] | IC50 [4] | IC50 (Endothelin-1 receptor) | IC50 [5] | Ki [5] | IC50 [6] | IC50 [7] | IC50 (Nitric oxide synthase 1) | IC50 [8] | Ki [8] | IC50 [9] | IC50 [10] | IC50 [11] | Ki [11] | IC50 (Cytochrome P450 2A6) | Ki (Cytochrome P450 2A6)

CCCCCCCCCc1ccc(O)cc1 [4-NONYLPHENOL]
Not Active: IC50 [1] | Ki [1] | IC50 [2] | IC50 [3] | Ki [3] | IC50 [4] | IC50 (Endothelin-1 receptor) | IC50 [5] | Ki [5] | IC50 [6] | IC50 [7] | IC50 (Nitric oxide synthase 1) | IC50 [8] | Ki [8] | IC50 [9] | IC50 [10] | IC50 [11] | Ki [11] | IC50 (Cytochrome P450 2A6) | Ki (Cytochrome P450 2A6)

CC1COc2c(N3CCN(C)CC3)c(F)cc3c(=O)c(C(=O)O)cn1c23 (stereo not given) [OFLOXACIN]
Not Active: IC50 [1] | Ki [1] | IC50 [2] | IC50 [3] | Ki [3] | IC50 [4] | IC50 (Endothelin-1 receptor) | IC50 [5] | Ki [5] | IC50 [6] | IC50 [7] | IC50 (Nitric oxide synthase 1) | IC50 [8] | Ki [8] | IC50 [9] | IC50 [10] | IC50 [11] | Ki [11] | IC50 (Cytochrome P450 2A6) | Ki (Cytochrome P450 2A6)

CC(C)(S)[C@@H](N)C(=O)O [PENICILLAMINE]
Not Active: IC50 [1] | Ki [1] | IC50 [2] | IC50 [3] | Ki [3] | IC50 [4] | IC50 (Endothelin-1 receptor) | IC50 [5] | Ki [5] | IC50 [6] | IC50 [7] | IC50 (Nitric oxide synthase 1) | IC50 [8] | Ki [8] | IC50 [9] | IC50 [10] | IC50 [11] | Ki [11] | IC50 (Cytochrome P450 2A6) | Ki (Cytochrome P450 2A6)

CC(=O)CCCCn1c(=O)c2c(ncn2C)n(C)c1=O [PENTOXIFYLLINE]
Not Active: IC50 [1] | Ki [1] | IC50 [2] | IC50 [3] | Ki [3] | IC50 [4] | IC50 (Endothelin-1 receptor) | IC50 [5] | Ki [5] | IC50 [6] | IC50 [7] | IC50 (Nitric oxide synthase 1) | IC50 [8] | Ki [8] | IC50 [9] | IC50 [10] | IC50 [11] | Ki [11] | IC50 (Cytochrome P450 2A6) | Ki (Cytochrome P450 2A6)

Nc1nc(=O)[nH]cc1F [FLUCYTOSINE]
Not Active: IC50 [1] | Ki [1] | IC50 [2] | IC50 [3] | Ki [3] | IC50 [4] | IC50 (Endothelin-1 receptor) | IC50 [5] | Ki [5] | IC50 [6] | IC50 [7] | IC50 (Nitric oxide synthase 1) | IC50 [8] | Ki [8] | IC50 [9] | IC50 [10] | IC50 [11] | Ki [11] | IC50 (Cytochrome P450 2A6) | Ki (Cytochrome P450 2A6)

CCC1(c2ccccc2)C(=O)NCNC1=O [PRIMIDONE]
Not Active: IC50 [1] | Ki [1] | IC50 [2] | IC50 [3] | Ki [3] | IC50 [4] | IC50 (Endothelin-1 receptor) | IC50 [5] | Ki [5] | IC50 [6] | IC50 [7] | IC50 (Nitric oxide synthase 1) | IC50 [8] | Ki [8] | IC50 [9] | IC50 [10] | IC50 [11] | Ki [11] | IC50 (Cytochrome P450 2A6) | Ki (Cytochrome P450 2A6)

CCCCOC(=O)c1ccc(N)cc1 [BUTAMBEN]
Not Active: IC50 [1] | Ki [1] | IC50 [2] | IC50 [3] | Ki [3] | IC50 [4] | IC50 (Endothelin-1 receptor) | IC50 [5] | Ki [5] | IC50 [6] | IC50 [7] | IC50 (Nitric oxide synthase 1) | IC50 [8] | Ki [8] | IC50 [9] | IC50 [10] | IC50 [11] | Ki [11] | IC50 (Cytochrome P450 2A6) | Ki (Cytochrome P450 2A6)
